Measurements as given in patent US6380227B1, “Fermentative preparation process for and crystal forms of cytostatics” (Novartis AG, priority 1998, dated 2002).

Assay: Stability of crystal forms of epothilone B
Details: storage, no test described

In the case of `C/C(=C\c1csc(C)n1)[C@@H]1C[C@@H]2O[C@]2(C)CCC[C@H](C)[C@H](O)[C@@H](C)C(=O)C(C)(C)[C@@H](O)CC(=O)O1` [crystal form A, epothilone B], the “stability of the solid crystal form” value is reported as “especially stable”.
